Our source for the MIC values is US20220177508A1, “C10-Cyclic Substituted 13-Membered Macrolides and Uses Thereof” (Zikani Therapeutics, Inc., priority 2018, published 2022).

In brackets after ≈: the same amount, converted by molar mass. Some results are limits rather than exact numbers.

Assay type in all cases: cell-based
One experiment relates to S. aureus MP-12. Kind of experiment: Broth dilution MIC determination (CLSI), S. aureus MP-12. Particulars: Staphylococcus aureus, MP12; strain MP-12, broth dilution.
Another experiment has as its system E. coli MP-4. Kind of experiment: Broth dilution MIC determination (CLSI), E. coli MP-4. Conditions: Escherichia coli, MP4; strain MP-4, broth dilution; read-out: MIC E. coli MP-4. For orientation: In broth dilution the organism is exposed to a series of concentrations in liquid medium.
In another experiment the test system is K. pneumoniae MP-546. Kind of experiment: Broth dilution MIC determination (CLSI), K. pneumoniae MP-546. Particulars: Klebsiella pneumoniae, MP546; strain MP-546, broth dilution.
Another experiment concerns P. aeruginosa MP-3. Kind of experiment: Broth dilution MIC determination (CLSI), P. aeruginosa MP-3. Conditions: Pseudomonas aeruginosa, MP3; strain MP-3, broth dilution.
The test system of the next experiment is A. baumannii MP-15. Kind of experiment: Broth dilution MIC determination (CLSI), A. baumannii MP-15. Conditions: Acinetobacter baumannii, MP15; strain MP-15, broth dilution; read-out: MIC A. baumanii MP-15.

Broadly, the MIC is the lowest concentration found to suppress growth. For the molecule `CO[C@]1(C)C[C@@H](C)CN(C)[C@@H]([C@H]2CC[C@H](N(C)C)CC2)COC(=O)C(C)(C)C(=O)[C@H](C)[C@H]1O[C@@H]1O[C@H](C)C[C@H](N(C)C)[C@H]1O` [Compound 137, (3S,6R,8R,9R,10R)-9-(((2S,3R,4S,6R)-4-(dimethylamino)-3-hydroxy-6-methyltetrahydro-2H-pyran-2-yl)oxy)-3-((1r,4S)-4-(dimethylamino)cyclohexyl)-8-methoxy-4,6,8,10,12,12-hexamethyl-1-oxa-4-azacyclotridecane-11,13-dione], the MIC with S. aureus MP-12 is over 32 µg/mL; in the experiment on E. coli MP-4 it was 4 to 32 µg/mL (≈ 6.39 to 51.1 µM); in the experiment with K. pneumoniae MP-546, 4 to 32 µg/mL (≈ 6.39 to 51.1 µM); in the experiment on P. aeruginosa MP-3 it was over 32 µg/mL; with A. baumannii MP-15, over 32 µg/mL.

In the case of `CO[C@]1(C)C[C@@H](C)CN(C)[C@H](C2CN(C3CCCCC3)C2)COC(=O)C(C)(C)C(=O)[C@H](C)[C@H]1O[C@@H]1O[C@H](C)C[C@H](N(C)C)[C@H]1O` [Compound 73, (3R,6R,8R,9R,10R)-3-(1-cyclohexylazetidin-3-yl)-9-(((2S,3R,4S,6R)-4-(dimethylamino)-3-hydroxy-6-methyltetrahydro-2H-pyran-2-yl)oxy)-8-methoxy-4,6,8,10,12,12-hexamethyl-1-oxa-4-azacyclotridecane-11,13-dione], the MIC in the experiment with S. aureus MP-12 was 4 to 32 µg/mL (≈ 6.27 to 50.2 µM); with E. coli MP-4, 4 to 32 µg/mL (≈ 6.27 to 50.2 µM); in the experiment with K. pneumoniae MP-546, under 4 µg/mL; in the experiment with P. aeruginosa MP-3, over 32 µg/mL; in the experiment on A. baumannii MP-15, 4 to 32 µg/mL (≈ 6.27 to 50.2 µM).

For the molecule `CO[C@]1(C)C[C@@H](C)CN(C)[C@H](C2CC3CCC(C2)N3C(C)C)COC(=O)C(C)(C)C(=O)[C@H](C)[C@H]1O[C@@H]1O[C@H](C)C[C@H](N(C)C)[C@H]1O` (stereo partly drawn) [Compound 170, (3R,6R,8R,9R,10R)-9-(((2S,3R,4S,6R)-4-(dimethylamino)-3-hydroxy-6-methyltetrahydro-2H-pyran-2-yl)oxy)-3-(8-isopropyl-8-azabicyclo[3.2.1]octan-3-yl)-8-methoxy-4,6,8,10,12,12-hexamethyl-1-oxa-4-azacyclotridecane-11,13-dione], the MIC was 4 to 32 µg/mL (≈ 6.14 to 49.1 µM) in the experiment on S. aureus MP-12; 4 to 32 µg/mL (≈ 6.14 to 49.1 µM) in the experiment with E. coli MP-4; 4 to 32 µg/mL (≈ 6.14 to 49.1 µM) with K. pneumoniae MP-546; over 32 µg/mL against P. aeruginosa MP-3; over 32 µg/mL in the experiment on A. baumannii MP-15.

In the case of `CO[C@]1(C)C[C@@H](C)CN(C)[C@@H]([C@H]2CCN(C)C2)COC(=O)C(C)(C)C(=O)[C@H](C)[C@H]1O[C@@H]1O[C@H](C)C[C@H](N(C)C)[C@H]1O` [Compound 48, (3S,6R,8R,9R,10R)-9-(((2S,3R,4S,6R)-4-(Dimethylamino)-3-hydroxy-6-methyltetrahydro-2H-pyran-2-yl)oxy)-8-methoxy-4,6,8,10,12,12-hexamethyl-3-((S)-1-methylpyrrolidin-3-yl)-1-oxa-4-azacyclotridecane-11,13-dione], the MIC in the experiment on S. aureus MP-12 is 4 to 32 µg/mL (≈ 6.85 to 54.8 µM); with E. coli MP-4, under 4 µg/mL; with K. pneumoniae MP-546, under 4 µg/mL; in the experiment on P. aeruginosa MP-3, over 32 µg/mL; in the experiment with A. baumannii MP-15, over 32 µg/mL.

Take `CO[C@]1(C)C[C@@H](C)CN(C)[C@H](C2CN(CC3CCC3)C2)COC(=O)C(C)(C)C(=O)[C@H](C)[C@H]1O[C@@H]1O[C@H](C)C[C@H](N(C)C)[C@H]1O` [Compound 17, (3R,6R,8R,9R,10R)-3-(1-(cyclobutylmethyl)azetidin-3-yl)-9-(((2S,3R,4S,6R)-4-(dimethylamino)-3-hydroxy-6-methyltetrahydro-2H-pyran-2-yl)oxy)-8-methoxy-4,6,8,10,12,12-hexamethyl-1-oxa-4-azacyclotridecane-11,13-dione]: the MIC against S. aureus MP-12 is 4 to 32 µg/mL (≈ 6.41 to 51.3 µM); with E. coli MP-4, under 4 µg/mL; with K. pneumoniae MP-546 it was under 4 µg/mL; in the experiment with P. aeruginosa MP-3, over 32 µg/mL; in the experiment with A. baumannii MP-15, 4 to 32 µg/mL (≈ 6.41 to 51.3 µM).

For `CO[C@]1(C)C[C@@H](C)CN[C@@H](c2ccccc2)COC(=O)[C@H](C)C(=O)[C@H](C)[C@H]1O[C@@H]1OC(C)CC(N(C)C)C1O` (stereo partly shown) [Compound 205], the MIC in the experiment with S. aureus MP-12, in the experiment on E. coli MP-4, with K. pneumoniae MP-546, in the experiment with P. aeruginosa MP-3 and in the experiment with A. baumannii MP-15 was over 32 µg/mL throughout.

In the case of `CO[C@]1(C)C[C@@H](C)CN(C)[C@@H](C2CN(C(=O)[C@@H](C)N(C)C)C2)COC(=O)C(C)(C)C(=O)[C@H](C)[C@H]1O[C@@H]1O[C@H](C)C[C@H](N(C)C)[C@H]1O` [Compound 52, (3S,6R,8R,9R,10R)-3-(1-(dimethyl-D-alanyl)azetidin-3-yl)-9-(((2S,3R,4S,6R)-4-(dimethylamino)-3-hydroxy-6-methyltetrahydro-2H-pyran-2-yl)oxy)-8-methoxy-4,6,8,10,12,12-hexamethyl-1-oxa-4-azacyclotridecane-11,13-dione], the MIC in the experiment with S. aureus MP-12 was over 32 µg/mL; in the experiment with E. coli MP-4, under 4 µg/mL; against K. pneumoniae MP-546 it was 4 to 32 µg/mL (≈ 6.11 to 48.9 µM); in the experiment with P. aeruginosa MP-3, over 32 µg/mL; with A. baumannii MP-15 it was over 32 µg/mL.

In the case of `CCC[N+]1(C)CC=C([C@H]2[C@@H](C)OC(=O)C(C)(C)C(=O)[C@H](C)[C@@H](O[C@@H]3O[C@H](C)C[C@H](N(C)C)[C@H]3O)[C@](C)(OC)C[C@@H](C)CN2C)CC1` (stereo partly drawn) [Compound 4, 4-((2R,3S,6R,8R,9R,10R)-9-(((2S,3R,4S,6R)-4-(dimethylamino)-3-hydroxy-6-methyltetrahydro-2H-pyran-2-yl)oxy)-8-methoxy-2,4,6,8,10,12,12-heptamethyl-11,13-dioxo-1-oxa-4-azacyclotridecan-3-yl)-1-methyl-1-propyl-1,2,3,6-tetrahydropyridin-1-ium], the MIC in the experiment on S. aureus MP-12, in the experiment with E. coli MP-4, against K. pneumoniae MP-546, against P. aeruginosa MP-3 and in the experiment on A. baumannii MP-15 was over 32 µg/mL each time.

As to `CO[C@]1(C)C[C@@H](C)CN(C)[C@H](c2ccc(B(O)O)cc2)COC(=O)C(C)(C)C(=O)[C@H](C)[C@H]1O[C@@H]1O[C@H](C)C[C@H](N(C)C)[C@H]1O` [Compound 133, (4-((3R,6R,8R,9R,10R)-9-(((2S,3R,4S,6R)-4-(Dimethylamino)-3-hydroxy-6-methyltetrahydro-2H-pyran-2-yl)oxy)-8-methoxy-4,6,8,10,12,12-hexamethyl-11,13-dioxo-1-oxa-4-azacyclotridecan-3-yl)phenyl)boronic acid], the MIC against S. aureus MP-12 was over 32 µg/mL; in the experiment with E. coli MP-4 it was 4 to 32 µg/mL (≈ 6.45 to 51.6 µM); against K. pneumoniae MP-546 it was over 32 µg/mL; against P. aeruginosa MP-3, over 32 µg/mL; with A. baumannii MP-15, over 32 µg/mL.

For `CO[C@]1(C)C[C@@H](C)CN(C)[C@@H]([C@@H]2CCN(C)C2)COC(=O)C(C)(C)C(=O)[C@H](C)[C@H]1O[C@@H]1O[C@H](C)C[C@H](N(C)C)[C@H]1O` [Compound 109, (3S,6R,8R,9R,10R)-9-(((2S,3R,4S,6R)-4-(Dimethylamino)-3-hydroxy-6-methyltetrahydro-2H-pyran-2-yl)oxy)-8-methoxy-4,6,8,10,12,12-hexamethyl-3-((R)-1-methylpyrrolidin-3-yl)-1-oxa-4-azacyclotridecane-11,13-dione], the MIC with S. aureus MP-12 is over 32 µg/mL; in the experiment with E. coli MP-4 it was under 4 µg/mL; in the experiment on K. pneumoniae MP-546 it was under 4 µg/mL; in the experiment with P. aeruginosa MP-3, over 32 µg/mL; in the experiment with A. baumannii MP-15, over 32 µg/mL.

In the case of `CO[C@]1(C)C[C@@H](C)CN(C)[C@H]([C@H]2CCCN(C)C2)COC(=O)C(C)(C)C(=O)[C@H](C)[C@H]1O[C@@H]1O[C@H](C)C[C@H](N(C)C)[C@H]1O` [Compound 171, (3R,6R,8R,9R,10R)-9-(((2S,3R,4S,6R)-4-(dimethylamino)-3-hydroxy-6-methyltetrahydro-2H-pyran-2-yl)oxy)-8-methoxy-4,6,8,10,12,12-hexamethyl-3-((S)-1-methylpiperidin-3-yl)-1-oxa-4-azacyclotridecane-11,13-dione], the MIC was over 32 µg/mL in the experiment on S. aureus MP-12; 4 to 32 µg/mL (≈ 6.69 to 53.5 µM) in the experiment with E. coli MP-4; 4 to 32 µg/mL (≈ 6.69 to 53.5 µM) with K. pneumoniae MP-546; over 32 µg/mL against P. aeruginosa MP-3; over 32 µg/mL in the experiment on A. baumannii MP-15.

For the molecule `CO[C@]1(C)C[C@@H](C)CN(C)[C@@H]([C@H]2CCN(C(C)C)C2)COC(=O)C(C)(C)C(=O)[C@H](C)[C@H]1O[C@@H]1O[C@H](C)C[C@H](N(C)C)[C@H]1O` [Compound 57, (3S,6R,8R,9R,10R)-9-(((2S,3R,4S,6R)-4-(Dimethylamino)-3-hydroxy-6-methyltetrahydro-2H-pyran-2-yl)oxy)-3-((S)-1-isopropylpyrrolidin-3-yl)-8-methoxy-4,6,8,10,12,12-hexamethyl-1-oxa-4-azacyclotridecane-11,13-dione], the MIC in the experiment on S. aureus MP-12 was 4 to 32 µg/mL (≈ 6.54 to 52.3 µM); with E. coli MP-4, under 4 µg/mL; against K. pneumoniae MP-546, 4 to 32 µg/mL (≈ 6.54 to 52.3 µM); in the experiment with P. aeruginosa MP-3 it was over 32 µg/mL; with A. baumannii MP-15 it was over 32 µg/mL.

On to `CO[C@]1(C)C[C@@H](C)CN(C)[C@@H]([C@H]2CCCN(C)C2)COC(=O)C(C)(C)C(=O)[C@H](C)[C@H]1O[C@@H]1O[C@H](C)C[C@H](N(C)C)[C@H]1O` [Compound 89, (3S,6R,8R,9R,10R)-9-(((2S,3R,4S,6R)-4-(dimethylamino)-3-hydroxy-6-methyltetrahydro-2H-pyran-2-yl)oxy)-8-methoxy-4,6,8,10,12,12-hexamethyl-3-((S)-1-methylpiperidin-3-yl)-1-oxa-4-azacyclotridecane-11,13-dione], for which the MIC is over 32 µg/mL in the experiment on S. aureus MP-12; 4 to 32 µg/mL (≈ 6.69 to 53.5 µM) with E. coli MP-4; over 32 µg/mL in the experiment on K. pneumoniae MP-546; over 32 µg/mL against P. aeruginosa MP-3; over 32 µg/mL in the experiment on A. baumannii MP-15.

As for `CCN1C[C@H](C)C[C@@](C)(OC)[C@H](O[C@@H]2O[C@H](C)C[C@H](N(C)C)[C@H]2O)[C@@H](C)C(=O)C(C)(C)C(=O)OC[C@H]1C1CN(CC(C)C)C1` [Compound 70, (3R,6R,8R,9R,10R)-9-(((2S,3R,4S,6R)-4-(dimethylamino)-3-hydroxy-6-methyltetrahydro-2H-pyran-2-yl)oxy)-4-ethyl-3-(1-isobutylazetidin-3-yl)-8-methoxy-6,8,10,12,12-pentamethyl-1-oxa-4-azacyclotridecane-11,13-dione], the minimum inhibitory concentration (MIC) in the experiment with S. aureus MP-12 is 4 to 32 µg/mL (≈ 6.39 to 51.1 µM); in the experiment on E. coli MP-4, under 4 µg/mL; in the experiment with K. pneumoniae MP-546 it was 4 to 32 µg/mL (≈ 6.39 to 51.1 µM); with P. aeruginosa MP-3, over 32 µg/mL; in the experiment on A. baumannii MP-15, over 32 µg/mL.
